The test system of data set [1] is Staphylococcus aureus. Also on record: method as in earlier work. As to conditions: cited from earlier work.
The nature of data set [2]: Stability of sample solutions at room temperature by HPLC. The class given is physicochemical. Particulars: sample solution at room temperature, HPLC at 0, 1, 2, 4, 6, 12 and 24 h. As to the method: The intra-day precision was determined by investigating the analytes in sextuplicates during a single day, and the inter-day precision was determined by conducting the intra-day experiment on two consecutive days. […] Each one sample solution of the seven flavonoids was kept at room temperature, and then their stabilities were determined by injecting them into apparatus at 0, 1, 2, 4, 6, 12, and 24 h.

Data set [3] has as its system parainfluenza virus type 3 (Para 3). Also on record: method as in PMID 11849843. As to conditions: cited from earlier work.
The test system of data set [4] is Caco-2 cells. As to the kind of experiment: MTT assay, survival rate of Caco-2 cells. As to conditions: 4 h. The class given is cell-based, human. The source says:
The human colon adenocarcinoma cell line Caco-2 (No. 3111C0001CCC000100, passage 32) was obtained from the Cell Resource Center, Peking Union Medical College (the headquarters of National Infrastructure of Cell Line Resource, NSTI) on May 3rd, 2013. The cell line was checked free of mycoplasma contamination by PCR and culture, its species origin was confirmed with PCR, and its identity was authenticated with STR profiling (FBI, CODIS). All results of the above tests can be viewed on the website (http://cellresource.cn). The cells were cultured in 25 cm^2 flasks in DMEM medium supplemented with 10% (v/v) FBS, 1% (v/v) NEAA, and 1% (v/v) penicillin-streptomycin, in an atmosphere of 5% CO2 at 37°C and constant moisture. The culture medium was replaced every 2 to 3 days, and the cells were split 1:2 or 1:3 as 80% confluence was obtained.
Caco-2 cells at logarithmic growth phase were seeded into 96-well plates and incubated at 37°C in an atmosphere of 5% CO2 and constant moisture in the incubator. After the cells reached confluence, they were cultured in quadruplicate with 100 μL of HBSS solution (negative control) and compound-containing HBSS solution (seven flavonoids or paclitaxel (positive control) at the concentrations of 25, 50, and 100 μmol/L, respectively) for 4 h. Then, HBSS solution was replaced by 100 μL of MTT solution (0.5 mg/mL), and the supernatant was discarded after 4 h of incubation at 37°C. The cells were shaken with 150 μL of DMSO for 10 min, and the absorbance was read on the microplate reader at 570 nm. The survival rate %=A¯/A0¯×100 , wherein A¯ was the average absorbance value of treatment or positive control group, and A0¯ was the average absorbance value of negative control group.
A general note: Formazan colour is commonly taken as a measure of viable cells.

The target of data set [5] is T1, P-glycoprotein (P-gp) (Homo sapiens, UniProt P08183).
T1 construct: endogenous in cells; host or cells: Caco-2 cells
As to the kind of experiment: Transporter inhibition experiment with verapamil hydrochloride (P-gp) in Caco-2 monolayer. The class given is in vitro ADME. Particulars: 50 μmol/L compound, 100 μmol/L verapamil hydrochloride, AP to BL; for Effect of verapamil hydrochloride on the transport: 180 min. As to the method:
(§1) On day 21, transport study was initiated by carefully removing the culture medium from both AP and BL sides. The Caco-2 monolayers were rinsed twice with pre-warmed HBSS and were incubated with the same solution at 37°C for 30 min. […] The final concentration of DMSO in these solutions was less than 1%. […] Incubation was performed at 37°C for 180 min, with shaking at 50 rpm. […] The samples were frozen immediately and stored below-20°C before analysis.

For data set [6], the system named is murine ear edema model. As to conditions: cited from earlier work.
The test system of data set [7] is S. epidermidis. Also on record: method as in earlier work. Particulars: cited from earlier work.
The test system of data set [8] is Caco-2 cell monolayer. As to the kind of experiment: Transport experiment across Caco-2 cell monolayer (Papp). The class given is in vitro ADME, human. Particulars: for Absorption mechanism: from P ratio, time course and concentration course; for P ratio Papp AP→BL/Papp BL→AP: 90 min. As for the experimental part: (§2) For cells differentiation to form a confluent monolayer, Caco-2 cells were seeded into the inserts of the 12-well Transwell plates at the density of 1.0×10^5 cells/cm^2. The culture medium was replaced on every other day in the first week, and then at daily intervals for the apical (AP) side and 2 days intervals for the basal (BL) side until the transport experiment was performed 21 days after seeding. The AP and BL sides contained 0.5 and 1.5 mL of culture medium, respectively. […] The cell inserts were considered as qualified only if the resistance reached above 600 Ω cm^2.
(§3) On day 21, the transport experiment was initiated by removal of the culture medium from AP and BL sides. The Caco-2 monolayers were rinsed twice with pre-warmed Hanks balanced salt solution (HBSS) and were incubated with the same solution at 37°C for 30 min. The seven individual test compounds and an equimolar mixture of them were pre-dissolved in DMSO, and then diluted to 25, 50, and 100 μmol/L with an appropriate volume of HBSS to allow the final concentration of DMSO to be less than 1%. The test compounds were added to the AP (0.5 mL) or BL side (1.5 mL), while the receiving chamber contained the corresponding volume of HBSS. Incubation was performed at 37°C for 180 min, with shaking at 50 rpm. At 30, 60, 90, 120, 150, and 180 min, each 0.2 mL of the solution from BL or AP side was collected, and replaced with an equal volume of HBSS. The samples were frozen immediately and stored below-20°C before analysis.
(§4) The apparent permeability coefficients (Papp) were determined in this study by HPLC quantification of the compounds in the receiver chamber after transport across the Caco-2 monolayer. The calculation was carried out in accordance with the formula Papp = (dQ/dt)×(1/A)×(1/C0), wherein dQ/dt was the rate of appearance of the test compound in the receiver compartment (μmol/s); C0 was the initial concentration of test compound in the donor compartment (μmol/mL); and A was the surface area of the Caco-2 monolayer (cm^2). The percentage transported (%) was calculated using the formula % transported = QB/(CS×VD)×100, wherein QB was the quantity of compound in the receiver compartment (μmol); CS was the concentration of test compound in the donor compartment (μmol/mL); VD was the liquid volume of the donor compartment (mL). The transport rate (μmol/h/cm^2) was calculated using the formula transport rate = QB/(t×A), wherein QB was the quantity of compound in the receiver compartment (μmol); t was the incubation time (h); A was the surface area of the Caco-2 monolayer (cm^2).
Background: Caco-2 cells form a polarised layer with tight junctions and transporters.

Assay in data set [9]: as above
Particulars: human, 50 μmol/L, 90 min. The class given is in vitro ADME, human. As for the experimental part:
as §2, §3, §4

In data set [10] the test system is influenza virus A. Also on record: method as in PMID 17193271. As to conditions: cited from earlier work.
Data set [11] concerns the target T2, multidrug resistance protein 2 (MRP2) (Homo sapiens, UniProt Q92887).
T2 construct: endogenous in cells; host or cells: Caco-2 cells
In words: Transporter inhibition experiment with probenecid (MRP2) in Caco-2 monolayer. The class given is in vitro ADME. As to conditions: 50 μmol/L compound, 600 μmol/L probenecid, AP to BL. As for the experimental part:
as §1

Setting [12] is: in the equimolar mixture of the seven flavonoids, 50 μmol/L.
Where [13] appears, read: Caco-2, in the equimolar mixture of the seven flavonoids.

Structures are written as SMILES. ≈ marks a conversion by molar mass, not a printed value. Where “and” joins values, the source holds several entries; their conditions need not be identical. Equal values may be shown once.

T1 sequence (P08183 whole entry): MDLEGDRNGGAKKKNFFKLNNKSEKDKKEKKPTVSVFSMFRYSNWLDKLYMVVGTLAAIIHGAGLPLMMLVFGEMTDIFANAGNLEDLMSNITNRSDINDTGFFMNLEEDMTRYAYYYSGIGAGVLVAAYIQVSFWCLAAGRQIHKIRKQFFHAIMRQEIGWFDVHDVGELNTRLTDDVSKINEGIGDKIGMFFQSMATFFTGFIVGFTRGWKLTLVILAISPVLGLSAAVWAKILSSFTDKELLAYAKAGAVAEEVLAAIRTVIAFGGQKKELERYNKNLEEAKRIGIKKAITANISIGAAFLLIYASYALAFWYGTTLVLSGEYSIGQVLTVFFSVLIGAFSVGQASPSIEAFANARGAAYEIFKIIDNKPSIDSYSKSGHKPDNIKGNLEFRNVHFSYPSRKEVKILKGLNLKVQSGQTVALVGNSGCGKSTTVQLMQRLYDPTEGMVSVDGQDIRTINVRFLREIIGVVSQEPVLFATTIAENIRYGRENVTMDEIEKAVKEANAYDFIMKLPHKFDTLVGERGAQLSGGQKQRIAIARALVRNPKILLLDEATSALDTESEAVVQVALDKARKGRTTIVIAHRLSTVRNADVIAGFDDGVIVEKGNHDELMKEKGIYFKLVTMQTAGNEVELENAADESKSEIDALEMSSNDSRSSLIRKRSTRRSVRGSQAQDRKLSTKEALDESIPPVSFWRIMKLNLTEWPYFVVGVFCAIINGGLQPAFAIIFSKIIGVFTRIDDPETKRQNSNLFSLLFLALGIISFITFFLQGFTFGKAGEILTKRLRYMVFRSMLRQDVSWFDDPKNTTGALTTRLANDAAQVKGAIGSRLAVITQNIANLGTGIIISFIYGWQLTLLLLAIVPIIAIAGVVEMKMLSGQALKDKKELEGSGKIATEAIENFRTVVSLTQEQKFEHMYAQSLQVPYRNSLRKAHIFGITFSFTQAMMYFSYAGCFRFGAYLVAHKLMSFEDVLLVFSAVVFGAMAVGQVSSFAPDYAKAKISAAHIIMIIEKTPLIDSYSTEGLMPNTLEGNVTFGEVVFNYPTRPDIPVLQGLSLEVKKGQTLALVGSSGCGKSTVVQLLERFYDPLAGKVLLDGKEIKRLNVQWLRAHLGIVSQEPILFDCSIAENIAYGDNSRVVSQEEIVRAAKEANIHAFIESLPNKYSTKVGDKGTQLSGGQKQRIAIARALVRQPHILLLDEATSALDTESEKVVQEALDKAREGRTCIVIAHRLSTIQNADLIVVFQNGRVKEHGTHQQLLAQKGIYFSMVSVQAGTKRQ
T2 sequence (Q92887 whole entry): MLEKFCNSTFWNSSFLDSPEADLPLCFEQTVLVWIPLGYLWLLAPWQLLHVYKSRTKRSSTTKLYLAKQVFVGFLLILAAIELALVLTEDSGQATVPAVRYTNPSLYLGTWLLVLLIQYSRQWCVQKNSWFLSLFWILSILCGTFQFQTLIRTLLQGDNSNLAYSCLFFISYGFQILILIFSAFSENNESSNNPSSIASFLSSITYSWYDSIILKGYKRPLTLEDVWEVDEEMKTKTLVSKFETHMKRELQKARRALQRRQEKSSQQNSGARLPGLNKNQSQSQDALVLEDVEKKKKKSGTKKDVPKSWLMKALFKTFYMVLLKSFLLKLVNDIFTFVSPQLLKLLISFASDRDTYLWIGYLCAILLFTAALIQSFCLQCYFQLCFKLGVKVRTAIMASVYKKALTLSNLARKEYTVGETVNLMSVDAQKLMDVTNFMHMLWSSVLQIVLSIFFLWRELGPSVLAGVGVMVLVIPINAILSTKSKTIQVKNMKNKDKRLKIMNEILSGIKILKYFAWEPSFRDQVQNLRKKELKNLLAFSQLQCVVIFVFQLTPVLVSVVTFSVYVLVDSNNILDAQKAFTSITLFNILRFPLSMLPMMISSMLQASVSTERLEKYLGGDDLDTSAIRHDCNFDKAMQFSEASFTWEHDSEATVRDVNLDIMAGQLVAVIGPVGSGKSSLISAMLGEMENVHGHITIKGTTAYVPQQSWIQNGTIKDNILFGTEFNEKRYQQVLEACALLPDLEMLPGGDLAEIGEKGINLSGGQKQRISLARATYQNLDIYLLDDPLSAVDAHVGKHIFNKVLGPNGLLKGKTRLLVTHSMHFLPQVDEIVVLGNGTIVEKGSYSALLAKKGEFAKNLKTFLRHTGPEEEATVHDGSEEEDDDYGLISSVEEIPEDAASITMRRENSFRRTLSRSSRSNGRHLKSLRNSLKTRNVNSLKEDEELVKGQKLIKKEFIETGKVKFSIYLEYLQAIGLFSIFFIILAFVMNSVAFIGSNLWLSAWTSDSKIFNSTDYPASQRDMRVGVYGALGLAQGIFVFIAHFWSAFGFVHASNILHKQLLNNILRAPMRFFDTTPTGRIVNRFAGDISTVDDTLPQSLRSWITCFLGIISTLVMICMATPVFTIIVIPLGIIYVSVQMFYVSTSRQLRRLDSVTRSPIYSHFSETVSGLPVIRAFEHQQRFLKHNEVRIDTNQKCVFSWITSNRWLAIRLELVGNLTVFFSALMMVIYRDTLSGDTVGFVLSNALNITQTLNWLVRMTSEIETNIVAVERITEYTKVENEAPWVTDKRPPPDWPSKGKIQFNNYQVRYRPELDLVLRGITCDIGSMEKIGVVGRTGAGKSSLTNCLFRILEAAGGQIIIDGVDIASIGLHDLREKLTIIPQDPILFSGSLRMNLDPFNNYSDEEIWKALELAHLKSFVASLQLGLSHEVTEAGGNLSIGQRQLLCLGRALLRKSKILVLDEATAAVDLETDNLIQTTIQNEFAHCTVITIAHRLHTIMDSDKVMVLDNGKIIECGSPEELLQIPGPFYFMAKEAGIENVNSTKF

In general, Papp A→B refers to how fast a substance crosses the layer from the apical side. The Papp B→A is the apparent permeability from the basolateral to the apical side of a cell layer. Turning to `O=c1cc(-c2ccc(O)cc2)oc2c([C@@H]3O[C@H](CO)[C@@H](O)[C@H](O)[C@H]3O)c(O)cc(O)c12` [Vitexin, 5,7-dihydroxy-2-(4-hydroxyphenyl)-8-((2S,3R,4R,5S,6R)-3,4,5-trihydroxy-6-(hydroxymethyl)tetrahydro-2H-pyran-2-yl)-4H-chromen-4-one], the “MIC toward S. aureus” value in data set [1] is given as 100 mg/L (≈ 231 µM). In data set [2], the “RSD% values for 24-hour stability” value was 2.42%. The “IC50 against parainfluenza virus type 3” value in data set [3] was 20.8 µg/mL (≈ 48.1 µM). For the same compound, the “Survival rates (%)” value in data set [4] (25 μmol/L) is given as 104.5±10.5%; in data set [4] (50 μmol/L), 101.3±2.3%; in data set [4] (100 μmol/L) it was 98.2±8.9%. In addition, in data set [5], the “Substrate of P-gp” value is reported as “substrates of P-gp”. Also, the “Effect of verapamil hydrochloride on the transport” value in [5] is recorded as “increased”. For the same compound, the “Anti-inflammatory effect against murine ear edema” value in data set [6] was “possess anti-inflammatory effects”. For the same compound, in data set [7], the “MIC toward S. epidermidis” value is given as 25 mg/L (≈ 57.8 µM). Moreover, the Absorption mechanism entry in data set [8] is “transporter mediated efflux in addition to passive diffusion”. Moreover, the “P ratio Papp AP→BL/Papp BL→AP” value in data set [8] (setting [12]) is listed as 1.55; in data set [8] (individual compound, 50 μmol/L) it was 0.67. The Papp A→B at 90 min, 50 μmol/L in data set [9] (setting [13]) is 1.6 ± 0.18 ×10⁻⁶ cm/s; in data set [9] (Caco-2, individual compound) it was 2.26 ± 0.37 ×10⁻⁶ cm/s. The Papp B→A at 90 min, 50 μmol/L in [9] (setting [13]) stood at 1.03 ± 0.28 ×10⁻⁶ cm/s; in data set [9] (Caco-2, individual compound), 3.38 ± 0.54 ×10⁻⁶ cm/s.

With `CCC(C)C(=O)O[C@@H]1[C@@H](O)[C@H](O)[C@@H](CO)O[C@H]1c1c(OC)cc(O)c2c(=O)cc(-c3ccc(O)cc3)oc12` (stereo partly drawn) [2”-O-(2”‘-methylbutanoyl)isoswertisin, (2S,3R,4S,5S,6R)-4,5-dihydroxy-2-(5-hydroxy-2-(4-hydroxyphenyl)-7-methoxy-4-oxo-4H-chromen-8-yl)-6-(hydroxymethyl)tetrahydro-2H-pyran-3-yl 2-methylbutanoate], in data set [10], the “Effect against influenza virus A” value was “had an effect”. Further, the “RSD% values for 24-hour stability” value in [2] is 3.89%. Moreover, the “Survival rates (%)” value turned out to be 108.8±10.3% in [4] (25 μmol/L), 127.6±4.9% in data set [4] (50 μmol/L) and 128.9±12.5% in [4] (100 μmol/L). For the same compound, the “Inhibitory rate on murine ear edema model” value in [6] is reported as 35.5%. In addition, the “Transport percentage BL to AP in the equimolar mixture compared with individual state” value in [8] (50 μmol/L) is listed as “increased almost twice”. The “Absorbability assessment based on bidirectional Papp values” in data set [8] (compared with atenolol and propranolol) was “moderate absorbable compound”. For the same compound, in [8], the Absorption mechanism entry is “passive diffusion without participation of transporter”. Moreover, the “P ratio Papp AP→BL/Papp BL→AP” value is 0.25 in [8] (setting [12]); ~1 and 0.94 in data set [8] (individual compound, 50 μmol/L). For the same compound, the Papp A→B at 90 min, 50 μmol/L was 3.49 ± 0.47 ×10⁻⁶ cm/s in data set [9] (setting [13]) and 4.5 ± 0.03 ×10⁻⁶ cm/s in data set [9] (Caco-2, individual compound). Also, the Papp B→A at 90 min, 50 μmol/L in [9] (setting [13]) was found to be 13.7 ± 1.14 ×10⁻⁶ cm/s; in data set [9] (Caco-2, individual compound) it was 4.8 ± 0.53 ×10⁻⁶ cm/s.

As for `O=c1cc(-c2ccc(O)c(O)c2)oc2c([C@@H]3O[C@H](CO)[C@@H](O)[C@H](O)[C@H]3O[C@@H]3O[C@H](CO)[C@H](O)[C@H](O)[C@H]3O)c(O)cc(O)c12` [2”-O-β-L-galactopyranosylorientin, 8-((2S,3R,4S,5S,6R)-4,5-dihydroxy-6-(hydroxymethyl)-3-(((2S,3R,4S,5R,6R)-3,4,5-trihydroxy-6-(hydroxymethyl)tetrahydro-2H-pyran-2-yl)oxy)tetrahydro-2H-pyran-2-yl)-2-(3,4-dihydroxyphenyl)-5,7-dihydroxy-4H-chromen-4-one], in data set [2], the “RSD% values for 24-hour stability” value was 2.86%. Moreover, the figures for the “Survival rates (%)” value in data set [4] (25 μmol/L), in [4] (50 μmol/L) and in data set [4] (100 μmol/L) were 111.0±9.1%, 104.7±2.7% and 102.7±7.7%, respectively. Further, in data set [11], the “Substrate of MRP2” value was “substrate of MRP2”. Moreover, the “Effect of probenecid on the transport” value in data set [11] (180 min) is recorded as “significantly promoted”. The “Substrate of P-gp” value in data set [5] is “nonsubstrates of P-gp”. The “Effect of verapamil hydrochloride on the transport” value in data set [5] is reported as “had no effect”. In addition, the Absorption mechanism entry in data set [8] was “transporter mediated efflux in addition to passive diffusion”. Moreover, the “P ratio Papp AP→BL/Papp BL→AP” value is on record as 1.90 in [8] (setting [12]) and 0.40 in [8] (individual compound, 50 μmol/L). The Papp A→B at 90 min, 50 μmol/L in data set [9] (setting [13]) was 1.31 ± 0.38 ×10⁻⁶ cm/s; in data set [9] (Caco-2, individual compound), 1.84 ± 0.01 ×10⁻⁶ cm/s. Also, the Papp B→A at 90 min, 50 μmol/L in data set [9] (setting [13]) is 0.69 ± 0.26 ×10⁻⁶ cm/s; in [9] (Caco-2, individual compound) it was 4.58 ± 0.18 ×10⁻⁶ cm/s.

(Values after article PMC4366261, “Characterization of the Intestinal Absorption of Seven Flavonoids from the Flowers of Trollius chinensis Using the Caco-2 Cell Monolayer Model” (PLoS ONE, 2015).)
